Experimental findings from PubChem BioAssay (NCI) are described below.

Each structure is given as a SMILES string. Where “and” joins values, the source holds several entries; their conditions need not be identical. Equal values may be shown once.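 48-hour exposure; five concentrations; linearly interpolated endpoints. Here, GI50 denotes the concentration required for 50% inhibition of growth. At the TGI there is no net growth.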 Numbered stars: 1 amine (or outer) side, 2 acyl side, 3 side chain; on linkers, the order of the positions; unused ones are H or OH. Bridge positions count the residues as written; N and C are the ends. Square brackets hold non-standard residues; d marks the D form. Peptide text beside a SMILES is read from it. I, II: the chains in the order shown. Actinocin(1to9) = Cc1c2oc3c(C)ccc(C(=O)[*:2])c3nc-2c(C(=O)[*:1])c(N)c1=O; NMeV = CN[CH](C(=O)O)C(C)C; Sar = CNCC(=O)O

For orientation: TGI means the concentration at which net growth stops. Usually GI50 stands for the concentration giving 50% growth inhibition.

What all share (test): DTP human tumour cell line panel, 48 h
Assay [1] has as its system MDA-MB-231 breast.
Assay [2] relates to A549 NSCLC.
For assay [3], the system named is T-47D breast.
Assay [4] concerns SNB-19 CNS.
Assay [5] concerns IGROV1 ovarian.
The subject of assay [6] is MDA-MB-435.
For assay [7], the system named is SF-268 CNS.
Assay [8] concerns CAKI-1 renal.
The subject of assay [9] is EKVX NSCLC.
Assay [10] deals with NCI/ADR-RES ovarian.

With `Cc1cccc(/C=C2\CCCCCC2=O)c1`, the TGI in [1], in assay [2], in [3], in assay [4], in assay [5] and in assay [6] was above 100 µM in each case. Also, the total growth inhibition concentration (TGI) in [7], in assay [8] and in assay [9] was above 100 µM in each case.

Regarding `Cc1ccc(S(=O)(=O)NC(=O)NCC(=O)O)cc1`, the TGI in assay [1], in assay [10], in assay [2], in assay [3], in assay [4] and in assay [5] was above 100 µM throughout. The compound also returned a TGI in assay [7] above 100 µM.

With `COC1=CC(=O)C2C(C1=O)[C@@H]1c3ccccc3OC[C@H]21` (some centres not stated), the TGI in assay [2], in assay [4], in [7], in assay [8] and in assay [9] was above 100 µM each time.

Regarding `CCOC(=O)C1C(=O)c2cccc(OC)c2C2COC(=O)N12` (configuration not stated), the TGI in [2], in [4], in [5], in assay [7] and in assay [9] was above 100 µM each time.

With `O=c1[nH]c(Br)nc2c(N3CCCCC3)c[nH]c12`, the TGI in [2], in [4], in [5], in [7], in assay [8] and in assay [9] was above 100 µM in each case.

Consider `CCOc1ccccc1NC(=O)C(=O)c1c(O)c2ccc(O)cc2oc1=O`, for which the TGI in assay [2], in [4], in [5], in assay [7], in assay [8] and in [9] was above 100 µM each time.

`CC(=O)Oc1cc2c(n(C)c1=O)CCC2`: the TGI in [1], in assay [10], in assay [2], in [4], in [5] and in assay [6] was above 100 µM in each case. Besides, the TGI in [7], in assay [8] and in [9] was above 100 µM in each case.

Turning to `N#C/C=C\c1ccc(-c2cc(C(F)(F)F)cc(C(F)(F)F)c2)o1`, the TGI in assay [1] was above 100 µM; in assay [10] it was above 100 µM; in assay [2], above 100 µM; in [4], above 100 µM; in [5] it was above 100 µM; in assay [6], 18.5 µM. Further, the TGI in assay [7] was 69.7 µM; in [8] it was above 100 µM; in assay [9], above 100 µM.

`CCCC(=O)Oc1cc(OC(=O)CCC)c2c(C)cc(=O)oc2c1`: the TGI in [1], in assay [10], in [2], in assay [4], in [5] and in assay [6] was above 100 µM in each case. For the same compound, the TGI in assay [7] and in [9] was above 100 µM in each case.

For the compound `CCC(C)C1NC(=O)C(NC(=O)c2c3nc4c(C(=O)NC5C(=O)NC(C(C)C)C(=O)N6CCCC6C(=O)N(C)CC(=O)N(C)C(C(C)C)C(=O)OC5C)ccc(C)c4oc-3c(C)c(=O)c2N)C(C)OC(=O)C(C(C)C)N(C)C(=O)CN(C)C(=O)C2CCCN2C1=O` (configuration not stated) (I: TIP[Sar][NMeV] / II: TVP[Sar][NMeV]; ester I:1-I:C, II:1-II:C; linker I:N-II:N via Actinocin(1to9); configuration not given here), the TGI was 0.0753 µM and 0.261 µM in [1]; 3.56 µM in [10]; 13.9 µM in assay [2]; 1.23 µM in assay [4]; 0.906 µM in assay [5]; 0.0302 µM in assay [6]. Moreover, in assay [9], the TGI was 0.179 µM and 0.0919 µM. The GI50 in assay [10] is 0.0239 µM.

As for `OCC(O)C(O)C(C=NNc1ncnc2ccc(Br)cc12)=NNc1ncnc2ccc(Br)cc12` (configuration not stated), the TGI is 31.3 µM and > 100 µM in [1]; 60.7 µM and > 100 µM in assay [2]; 16.1 µM and > 100 µM in assay [3]; above 100 µM in assay [4]; 12.2 µM and > 100 µM in assay [5]; 76.9 µM and > 100 µM in [6]. Moreover, the TGI is 25 µM and > 100 µM in [7]; 20.9 µM and > 100 µM in [9].

For the compound `O=C(NC(Cc1ccccc1)P(=O)(O)c1ccccc1)OCc1ccccc1` (configuration not stated), the TGI in [10], in assay [2], in assay [3], in [4], in [5] and in assay [6] was above 100 µM each time. The TGI in assay [7], in assay [8] and in assay [9] was above 100 µM throughout.

As for `CC(=O)CC(=O)ON(C)C(=O)Cc1ccccc1`, the TGI in assay [2], in assay [4], in [5], in assay [7] and in assay [8] was above 100 µM throughout.

As to `OCC1(CNc2cc(Cl)ncn2)CCC1`, the TGI in [1], in assay [10], in assay [2], in assay [5], in assay [6] and in [7] was above 100 µM each time. The compound also came in with a TGI in assay [9] above 100 µM.

Turning to `Cc1ccccc1NC(=O)CC(=O)n1nc(-c2ccccc2)c(N=Nc2ccc([N+](=O)[O-])cc2)c1-c1ccccc1`, the TGI in assay [2] was 41.8 µM; in assay [4], above 100 µM; in [5], above 100 µM; in assay [7] it was above 100 µM; in assay [8], 40.4 µM; in [9], 88.1 µM.

In the case of `CC(C)(C)c1cc2c(O)c(c1)COCc1cc(C(C)(C)C)cc(c1O)COCc1cc(C(C)(C)C)cc(c1O)COC2`, the TGI in assay [10], in assay [2], in [3], in assay [4], in [5] and in [6] was above 100 µM throughout. In assay [9], this compound registered a TGI above 100 µM.

For the compound `CN1C(=O)C(O)C[C@@H]1c1ccc(F)cc1` (some centres not stated), the total growth inhibition concentration (TGI) in assay [1], in assay [2], in assay [3], in assay [4], in [5] and in [6] was above 100 µM in each case. Besides, the TGI in [8] and in assay [9] was above 100 µM each time.
